Read-outs that look alike come from different tables or passages of the source.
Columns and labels:
Format in all cases: cell-based
[1] = system: Enterococcus faecium (EFM); experiment: MIC, two-fold agar dilution (CLSI), clinical isolates
Procedure, shortened: (§1)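 Samples are serially diluted two-fold in agar following CLSI guidance. Plates are then inoculated with the tested strains. The lowest inhibiting concentration is recorded as MIC.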

[2] = system: methicillin-resistant Staphylococcus epidermidis (MRSE); experiment: as above
Procedure, shortened: as §1

[3] = system: Enterococcus faecalis (EFA); experiment: as above
Procedure, shortened: as §1

[4] = system: Streptococcus pneoumoniae (SPN); experiment: as above
Procedure, shortened: as §1

[5] = system: Moraxella catarrhalis (BCA); experiment: as above
Procedure, shortened: as §1

[6] = system: methicillin-sensitive Staphylococcus epidermidis (MSSE); experiment: as above
Procedure, shortened: as §1

[7] = system: methicillin-resistant Staphylococcus aureus (MRSA); experiment: as above
Procedure, shortened: as §1

[8] = system: methicillin-sensitive Staphylococcus aureus (MSSA); experiment: as above
Procedure, shortened: as §1

[9] = system: Escherichia coli (including ESBLs, non-ESBLs); experiment: as above
Procedure, shortened: as §1

[10] = system: A549 lung cancer cell line; experiment: CCK-8 proliferation inhibition; conditions: Homo sapiens
Procedure, shortened: (§2)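 Plating at 2000 cells/well, then incubation overnight at 37° C. Next, a range of compound concentrations for 72 hours (control 1‰ DMSO). Finally, medium decanted and CCK-8 diluted 1:10 added.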

[11] = system: BEL-7402 liver cancer cell line; experiment: CCK-8 proliferation inhibition
Procedure, shortened: as §2

[12] = system: MGC-803 gastric cancer cell line; experiment: CCK-8 proliferation inhibition; conditions: Homo sapiens
Procedure, shortened: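 Using media specific to each line (1640 for MGC-803 and Jurkat, F12 for PC3, DMEM high glucose for MCF-7, each with 10% newborn bovine serum), cells at 2000/well were treated for 72 h with serially formulated compounds, then assessed with CCK-8 diluted 1:10.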

[13] = system: HCT-116 colorectal cancer cell line; experiment: CCK-8 proliferation inhibition; conditions: Homo sapiens, 72 hours, CCK-8; for inhibition at 30 µM: HCT-116, 72 h, concentration of 30 μM
Procedure, shortened: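 Proliferation over 72 hours of compound treatment was measured with CCK-8 against a 1‰ DMSO control.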

## CCCC[C@H](CC(=O)NO)C(=O)N1CC2(CC2)C[C@H]1C(=O)Nc1cc(C(C)(C)C)on1 [Example 55]
[1]; clinical isolate EFM 15-1
  Anti-bacterial activity (MIC), strain EFM 15-1: > 32 µg/mL
[1]; clinical isolate EFM 15-2
  Anti-bacterial activity (MIC), strain EFM 15-2: > 32 µg/mL
[1]; clinical isolate EFM 15-3
  Anti-bacterial activity (MIC), strain EFM 15-3: > 32 µg/mL
[1]; clinical isolate EFM 15-4
  Anti-bacterial activity (MIC), strain EFM 15-4: > 32 µg/mL
[1]; clinical isolate EFM 15-5
  Anti-bacterial activity (MIC), strain EFM 15-5: 0.5 µg/mL
[1]; clinical isolate EFM 15-6
  Anti-bacterial activity (MIC), strain EFM 15-6: 2 µg/mL
[2]; clinical isolate MRSE 15-1
  Anti-bacterial activity (MIC), strain MRSE 15-1: 1 µg/mL
[2]; clinical isolate MRSE 15-2
  Anti-bacterial activity (MIC), strain MRSE 15-2: 1 µg/mL
[2]; clinical isolate MRSE 15-3
  Anti-bacterial activity (MIC), strain MRSE 15-3: 1 µg/mL
[2]; clinical isolate MRSE 15-7
  Anti-bacterial activity (MIC), strain MRSE 15-7: 1 µg/mL
[3]; clinical isolate EFA 15-1
  Anti-bacterial activity (MIC), strain EFA 15-1: > 32 µg/mL
[3]; clinical isolate EFA 15-2
  Anti-bacterial activity (MIC), strain EFA 15-2: > 32 µg/mL
[3]; clinical isolate EFA 15-3
  Anti-bacterial activity (MIC), strain EFA 15-3: > 32 µg/mL
[3]; clinical isolate EFA 15-4
  Anti-bacterial activity (MIC), strain EFA 15-4: > 32 µg/mL
[3]; clinical isolate EFA 15-5
  Anti-bacterial activity (MIC), strain EFA 15-5: > 32 µg/mL
[3]; clinical isolate EFA 15-6
  Anti-bacterial activity (MIC), strain EFA 15-6: > 32 µg/mL
[3]; clinical isolate EFA 15-9
  Anti-bacterial activity (MIC), strain EFA 15-9: 8 µg/mL
[4]; clinical isolate SPN 16-2
  Anti-bacterial activity (MIC), strain SPN 16-2: 1 µg/mL
[4]; clinical isolate SPN 16-4
  Anti-bacterial activity (MIC), strain SPN 16-4: 1 µg/mL
[5]; clinical isolate BCA 14-1
  Anti-bacterial activity (MIC), strain BCA 14-1: 4 µg/mL
[5]; clinical isolate BCA 14-4
  Anti-bacterial activity (MIC), strain BCA 14-4: 4 µg/mL
[5]; clinical isolate BCA 14-5
  Anti-bacterial activity (MIC), strain BCA 14-5: 1 µg/mL
[5]; clinical isolate BCA 14-6
  Anti-bacterial activity (MIC), strain BCA 14-6: 2 µg/mL
[5]; clinical isolate BCA 14-7
  Anti-bacterial activity (MIC), strain BCA 14-7: 4 µg/mL
[5]; clinical isolate BCA 14-8
  Anti-bacterial activity (MIC), strain BCA 14-8: 4 µg/mL
[5]; clinical isolate BCA 14-10
  Anti-bacterial activity (MIC), strain BCA 14-10: 4 µg/mL
[6]; clinical isolate MSSE 15-3
  Anti-bacterial activity (MIC), strain MSSE 15-3: 1 µg/mL
[6]; clinical isolate MSSE 15-4
  Anti-bacterial activity (MIC), strain MSSE 15-4: 1 µg/mL
[6]; clinical isolate MSSE 15-5
  Anti-bacterial activity (MIC), strain MSSE 15-5: 1 µg/mL
[6]; clinical isolate MSSE 15-6
  Anti-bacterial activity (MIC), strain MSSE 15-6: 1 µg/mL
[7]; clinical isolate MRSA 15-1
  Anti-bacterial activity (MIC), strain MRSA 15-1: 0.25 µg/mL
[7]; clinical isolate MRSA 15-2
  Anti-bacterial activity (MIC), strain MRSA 15-2: 0.5 µg/mL
[7]; clinical isolate MRSA 15-3
  Anti-bacterial activity (MIC), strain MRSA 15-3: 0.5 µg/mL
[7]; clinical isolate MRSA 15-4
  Anti-bacterial activity (MIC), strain MRSA 15-4: 0.5 µg/mL
[8]; clinical isolate MSSA 15-3
  Anti-bacterial activity (MIC), strain MSSA 15-3: 0.5 µg/mL
[8]; clinical isolate MSSA 15-4
  Anti-bacterial activity (MIC), strain MSSA 15-4: 1 µg/mL
[8]; clinical isolate MSSA 15-5
  Anti-bacterial activity (MIC), strain MSSA 15-5: 1 µg/mL
[8]; clinical isolate MSSA 15-6
  Anti-bacterial activity (MIC), strain MSSA 15-6: > 32 µg/mL
[9]; clinical isolate ECO+ 15-1
  Anti-bacterial activity (MIC), strain ECO+ 15-1: 32 µg/mL
[9]; clinical isolate ECO+ 15-2
  Anti-bacterial activity (MIC), strain ECO+ 15-2: > 32 µg/mL
[9]; clinical isolate ECO+ 15-3
  Anti-bacterial activity (MIC), strain ECO+ 15-3: > 32 µg/mL
[9]; clinical isolate ECO+ 15-4
  Anti-bacterial activity (MIC), strain ECO+ 15-4: 1 µg/mL
[9]; clinical isolate ECO− 15-1
  Anti-bacterial activity (MIC), strain ECO− 15-1: > 32 µg/mL
[9]; clinical isolate ECO− 15-2
  Anti-bacterial activity (MIC), strain ECO− 15-2: > 32 µg/mL
[9]; clinical isolate ECO− 15-3
  Anti-bacterial activity (MIC), strain ECO− 15-3: > 32 µg/mL
[9]; clinical isolate ECO− 15-4
  Anti-bacterial activity (MIC), strain ECO− 15-4: > 32 µg/mL
[10]; A549, 72 h, concentration of 30 μM
  inhibition at 30 µM: 49%
[10]; A549, 72 hours
  IC50: 12.1 µM
[11]; Homo sapiens, Bel-7402, 72 h, concentration of 30 μM
  inhibition at 30 µM: > 50%
[11]; Homo sapiens, Bel-7402, 72 hours
  IC50: 25.9 µM
[11]; concentration of 30 μM, 72 hours, 30 µM
  Inhibition of proliferation, Liver cancer BEL-7402: 59%
[12]; MGC-803, 72 h, concentration of 30 μM
  inhibition at 30 µM: 33%
[12]; MGC-803, 72 hours
  IC50: 29.5 µM
[13]; Table 5, read-out: Inhibition of proliferation, Colorectal cancer HCT116
  inhibition at 30 µM: ≥ 30%
[13]; read-out: HCT116 inhibition rate/%
  inhibition at 30 µM: 30%
[13]; HCT-116
  IC50: 15.2 µM

Source: US10738028B2, “Spiro three-membered ring, spiro five-membered ring peptide deformylase inhibitor and use thereof in antibacteria and anti-tumor” (priority 2016, dated 2020)
